Assay [1] deals with peripheral blood mononuclear cells (PBMCs). Nature of the assay: Human PBMC 3H-thymidine incorporation assay. In kind it is cell-based. To be noted: for positive response rate in 3H-thymidine incorporation assay: day 7, positive = SI>=3 and ccpm >1000. Here is the method:
Fresh blood samples were collected in CPDA-tubes. PBMCs from lymphocyte cones or fresh blood were isolated by Ficoll gradient centrifugation, frozen in 40% RPMI-1640, 50% heat inactivated fetal bovine serum (Sigma; F9665) and 10% DMSO and stored in liquid nitrogen until required. Thawed PBMCs were cultured at 1.5×10^6 cells/mL in X-VIVO-15 medium ((Lonza BE02-061Q) supplemented with 5% v/v human AB serum (Sigma H4522), 1× penicillin/streptomycin (Gibco 15140122)) either in the presence of GAD65 P10 30-mer antigen between 20-50 μg/mL or absence of antigen (negative control). Peptide response was measured by 3H radioactive thymidine incorporation on day 5 and day 7, by pulsing cell cultures with ^3H-thymidine (Perkin Elmer), as previously described (Mazza et al., 2002). Positive responses had corrected counts per minute (ccpm) counts >1000 and a stimulation index (SI)≥3, calculated as the fold-change of peptide stimulated condition over the negative control.
The workflow to design and validate tolerogenic apitopes (antigen processing independent T-cell epitopes) begins with identification of peptides predicted to bind to various HLA-DR molecules (pan-DR binders) using a combination of publicly available MHC-binding algorithms (FIG. 1A). In silico analyses identified 9 or 15 amino acid peptides within GAD65 that were extended to ˜30-mer peptides (FIG. 1B) to encourage antigen processing and presentation of a naturally processed epitope (Anderton et al., 2002). To test whether the designed 30-mer peptides could be correctly processed and preferentially induce immune responses in T1D patients, we screened for GAD65 30-mers responses in isolated peripheral blood mononuclear cells (PBMCs) from 20 non-diabetic healthy controls and 40 adults with T1D. […] On day 7 of the ^3H-thymidine incorporation assay, 20% (4/20) of healthy controls had shown a positive response to GAD65 P10 30-mer compared to 58% (23/40) of T1D patients (FIG. 1C).

The subject of assay [2] is GAD65 P10-specific T-cell hybridomas. Nature of the assay: T-cell hybridoma screen with Priess cells as APCs, IL-2 ELISA. Format: cell-based, mouse. To be noted: hybridoma multi-clone 6 with HLA-DRB1*04:01 expressing APCs. The method, then: (§1) HLA-DR4 transgenic mice were injected subcutaneously with Complete Freund's Adjuvant (CFA) and 100 μg of GAD65 P10 30-mer. After 10 days, splenocytes were isolated and re-stimulated with GAD65 P10 30-mer for a further 4-5 days before fusion with hypoxanthine-aminopterin-thymidine (HAT) sensitive BW5147 cells using polyethylene glycol (PEG). Fused hybridomas were expanded in HAT selection media before antigen-specific screening. Co-cultures of 1×10^5 hybridomas and 2×10^5 Priess cells (an Epstein-Barr Virus (EBV) transformed DR4 (DRB1*04:01) expressing human cell line (ECACC 86052111)) as antigen presenting cells (APCs) were incubated for 48 h in a 96-well plate with peptide, whole GAD65 protein, or media only. Antigen-specific responses were determined by IL-2 secretion into culture supernatant by ELISA assay (BioLegend 431004). Hybridomas that proliferated in response to both GAD65 protein and GAD65 30-mer were single cell cloned by limiting dilution.
Six 15-mers that spanned the parent 30-mer amino acid sequence were generated by 3 amino acid shifts from the N-terminus toward the C-terminus.
For orientation: An ELISA detects its analyte on a solid surface through an enzyme-linked reagent.

Assay [3] concerns HLA-DR4 transgenic mice. Nature of the assay: Peptide immunogenicity in HLA-DR transgenic mice (immunisation). Format: in vivo, mouse. To be noted: HLA-DR4 transgenic mice (HLA-DRB1*04:01); data not shown. Here is the method: as §1
Generation of hybridomas that respond to both the GAD65 protein and the P10 30-mer peptide means that these hybridomas can recognise naturally processed peptide presented by APCs—a property shown to be critical for successful peptide immunotherapy design (Anderton et al 2002).

For the sequence “DAAWGGGLLMSRKHKWKLSGVERANSVTWN [P10 30-mer]”, the “average magnitude of the proliferative response” value in assay [1] (T1D patients vs healthy controls, Mann-Whitney p=0.0146) is reported as “significantly increased”. The “positive response rate in 3H-thymidine incorporation assay” value in assay [1] (T1D patients (23/40)) is 58%; in assay [1] (non-diabetic healthy controls (4/20)), 20%. Moreover, the “hybridoma IL-2 response” value in assay [2] is reported as “could respond”. In assay [3], the response to immunisation result is listed as “responded well”.

The values are drawn from patent publication US20260034200A1, “TOLEROGENIC PEPTIDES” (University of Birmingham, priority 2022, published 2026).
